This note sets out measurements from a melting point compilation (Tetko et al.; mined from patent text by program, amines drawn as free bases though some values may be those of a salt).

One may read the melting point as the temperature, or range, at which the solid turns liquid.

For `CCN(CC)CCOc1ccc(Nc2ncc3c(n2)N(C)C(=O)N(c2cccc(Br)c2)C3)cc1`, the melting point came out at 150 °C.
In the case of `N#Cc1cn(C2OC(CO)C(O)C2O)c2ncn(O)c(=O)c12` (centres undefined) it was 229 to 231 °C; in that of `O=C1N(Cc2nnc(Cl)s2)c2ccccc2C12COc1cc3c(cc12)OCO3` (centres undefined), 194 to 197 °C; in that of `CC1(C(=O)O)c2ccccc2-c2ccccc21`, 168 to 169 °C.
For the compound `C[Si](C)(C)CCCCCCCNC(=O)n1cc(F)c(=O)[nH]c1=O`, the melting point fell in the range of 118 to 119 °C.
Then `O=C(O)C(=O)c1ccc(OCCOc2ccc3cc4ccccc4cc3c2)cc1`, with 213 to 214 °C.
Then `CC(C)(C)c1ccc(C(O)CCCN2CCC(C3(O)c4ccccc4CCc4ccccc43)CC2)cc1` (centres undefined), with 142 to 144 °C.
With `Cc1cccc(Cl)c1OC1CN(C(=O)N(C)C)C1`, the melting point lay within 46 to 47 °C.
In the case of `N#Cc1cncc(-c2ccc3c(c2)C2(CCCCC2)C(=O)N3)c1` it was 232 to 234 °C; in that of `O=C1NCC(Cc2ccc3c(c2)OCO3)O1` (centres undefined), 98.5 to 100 °C; in that of `CC(C)c1cc(S(=O)(=O)c2c(Br)cc(CCC(=O)O)cc2Br)ccc1O`, 186 to 188 °C.
In the case of `Clc1cccc(Nc2n[nH]c3ncnc(NCc4ccccc4)c23)c1` it was 216 to 218 °C; in that of `N#CCc1ccccc1Sc1ccc(Cl)c(C(F)(F)F)c1`, 69 to 70 °C; in that of `Cc1cc(Cl)cc(C(=O)NCC2CCO2)c1NC(=O)c1cc(Br)nn1-c1ncccc1Cl` (centres undefined), 95 to 97 °C.
Then `CNS(=O)(=O)C(C)C(=O)C=C(C)N` (centres undefined), with 140 to 143 °C; and `CC(C)S(=O)(=O)c1ccccc1Nc1nc(Nc2ccc3c(c2)C(C)(C)CCC(=O)N3C)ncc1Cl`, with 195 to 197 °C; and `Nc1cc(Br)cc(Br)c1N`, with 78 to 80 °C.
With `Nc1ncnc2c1c(-c1cccc(F)c1)nn2Cc1oc2ccccc2c(=O)c1-c1ccccc1`, the melting point is 244 to 247 °C.
In the case of `Cc1cc(Cl)ccc1-c1cc(Cl)cc2c1NC(CN)CO2` (centres undefined) it was 102 °C.
Compound `CCOC(=O)c1nc(Cl)nc(N)c1OC` yielded a melting point of 118 to 119 °C.
Then `N#Cc1ccc(CN2CC=C(/C=C/c3ccccc3)CC2)cc1`, with 155 to 157 °C; and `NC(=O)c1ccc(C(=O)N2Cc3cccn3Cc3ccccc32)cc1`, with 226 to 228 °C.
Then `COc1cc(-c2ncn(-c3cc(OC)c(OC)c(OC)c3)c2-c2cc(OC)c(OC)c(OC)c2)cc(OC)c1OC`, with 169 to 171 °C.
Then `CCOC(=O)c1[nH]c(CC)nc1C1CC1`, with 154 to 155 °C.
Regarding `O=C(N=CN1CCCCC1)C(O)(C(=O)N=CN1CCCCC1)c1ccc(Cl)c(Cl)c1` (centres undefined), the melting point was determined as 195 °C.
In the case of `COc1ccc(-c2c(C(C)=O)c(C)nc3cc(OC)c(OC)cc23)cc1OC` it was 210 to 211 °C.
In turn, `Cc1c(-c2ccccc2)oc(=O)n1C1CCN(CCc2ccccc2)CC1` gave a melting point of 144 °C.
In the case of `CN1CCN(c2cc3c(Br)cccc3c(=O)[nH]2)CC1` it was 240 to 241 °C; in that of `Cc1c(CO)sc2cc(Br)ccc12`, 95 to 96 °C.
As for `N#Cc1ccc(N(Cc2ccc(OS(N)(=O)=O)c(Cl)c2)n2cnnc2)cc1-c1cc2ccccc2o1`, the melting point was in the range of 214 to 215 °C.
As to `O=C1CCC(N2Cc3c(OCC4CCCOC4)cccc3C2=O)C(=O)N1` (centres undefined), the melting point was 118 to 120 °C.
In the case of `O=c1[nH]c2sc(Cl)c(C3CC3)c2[nH]c1=O` it was above 260 °C; in that of `Cc1c(OCC(F)(F)F)ccnc1CSc1nc2ccccc2[nH]1`, 142 to 144 °C; in that of `CCn1nc(OCC(=O)C(C)(C)C)c(-c2ccccc2)c1-c1ccc(S(C)(=O)=O)cc1`, 158 to 161 °C.
Then `CC(C)(C)C(=N)Nc1ccccc1N1CCOCC1`, with 126 °C; and `N#Cc1nn(-c2ccc(C=O)cc2)nc1-c1ccccc1`, with 111 to 115 °C.
Then `COc1ccc(CC#N)cc1S(N)(=O)=O`, with 173 to 177 °C; and `COCC[C@H]1CN(c2cc(C)cc3c2C=Nc2ccccc2N3)CCN1C`, with 100 to 108 °C; and `N#Cc1cc(C(=O)NNC(=O)c2occc2-c2ccc(OCc3ccccc3)cc2)ccc1O`, with 208 to 209 °C.
`O=C(O)c1cc(-n2c(-c3ccc(F)cc3)cc3c2CCCC3)ccc1O` came in with a melting point of 239 to 240 °C.
Then `CCN1C(=O)CN=C(c2ccccc2F)c2cc(C(C)=O)ccc21`, with 154 to 156 °C; and `c1nc(Nc2ccc3[nH]ccc3c2)c2sc(-c3ccc(CNCCN4CCOCC4)cc3)cc2n1`, with 100 to 111 °C; and `Nc1cc(Cl)c(OCC(F)(F)F)cc1F`, with 40 to 41 °C.
Then `COc1ccc(CNc2nc(SC)ncc2CO)cc1Cl`, with 159 to 160 °C.
`CCc1cnc2c(NC(=O)c3c(Cl)cccc3Cl)cccc2c1CCl` had a melting point of 193 to 194 °C.
Compound `Cc1ccc(-n2nc(C)c(C(=O)O)n2)cc1` came in with a melting point of 230 to 232 °C.
Regarding `COc1ccc(-c2[nH]c(-c3ccncc3)c(C)c2C(C)=O)cc1`, the melting point fell in the range of 185 to 186 °C.
The compound `CCCCCC(=O)OCc1cc(O)ncn1` showed a melting point of 133 to 134 °C.
In the case of `Cc1nc(-c2ccc(Cl)cc2)n(-c2ccc(S(N)(=O)=O)cc2)n1` it was 247 to 249 °C; in that of `CCOC(=O)c1cc(NCc2c(C)cccc2CC)c2nc(COC)n(C)c2c1`, 106 to 107 °C; in that of `CC(=O)N1CCNC1=NC(c1ccccc1)c1ccccc1`, 234 to 236 °C.
In turn, `CC1CCN(c2nc(N)c3ccccc3n2)CC1` showed a melting point of 190 °C.
In turn, `CC(=O)OC(c1nccs1)(c1nccs1)C(F)(F)F` gave a melting point of 82 to 84 °C.
`Cc1cccnc1-c1cc2cccnc2c(Cl)n1` showed a melting point of 130 to 131 °C.
For the compound `Cc1cc(-n2ccc(OCc3ccccc3)cc2=O)sc1C(=O)NCc1ccc(F)cc1`, the melting point fell in the range of 175 to 177 °C.
In the case of `CCCCOCCOc1ccc(-c2ccc(N3CCC(C)C3)c(C=CC(=O)O)c2)cc1` (centres undefined) it was 136 to 139 °C.
`COc1ccc(-c2c(Cl)c(CCl)nc3sc4c(c23)CCN(Cc2ccccc2)C4)cc1` displayed a melting point of 194 to 195 °C.
Then `CC(C)(C)c1cc(C=C2SCN(CC#N)C2=O)cc(C(C)(C)C)c1O`, with 186 to 188 °C; and `Nc1cccc(Cl)c1-c1nc(-c2ccncc2)c(-c2ccc(Cl)cc2)[nH]1`, with 220 to 222 °C; and `CN(C)N=Nc1ccsc1C(=O)O`, with 108 to 110 °C.
Consider `CCCCCCCCCCCCCCCCCCOc1ccc2c(c1)C(=O)c1ccc(OCCCCCCCCCCCCCCCCCC)cc1C2=O`, for which the melting point is 112 to 122 °C.
In the case of `CC=Cc1ccccc1Oc1ccc(Oc2ccccc2C=CC)nn1` it was 165 to 168 °C; in that of `COc1cc(OC)c2c(=O)cc(-c3ccc(C#N)cc3)oc2c1C1CCN(C)C1CO` (centres undefined), 214 to 216 °C; in that of `CCCCCCCCCCCCCCCCSCC(CNS(=O)(=O)CCCCl)n1nnnc1C` (centres undefined), 62 to 62.5 °C.
